Among the data in patent US4965270A, “Purine derivatives” (Beecham Group p.l.c., priority 1989, dated 1990) are MIC and IC50 values, retold here.

Common to all, as to assay type: cell-based
Assay [1] has as its system visna virus (strain K184). Briefly: CPE inhibition test (established monolayer), visna virus. Particulars: Visna-maedi virus; K184 strain in SCP cells; minimum concentration giving complete protection of the cell monolayers. The method, then:
4. CPE Inhibition Test (Established Monolayer) for Lentiviruses
3×10^4 sheep choroid plexus (SCP) cells were plated into individual wells of a 96 well microtitre plate in 100 μl of Eagle's MEM with Hanks salts containing 10% heat inactivated foetal calf serum (FCS). When monolayers had become established (after 1 or 2 days growth) they were washed with 200 μl of maintenance medium (Eagle's MEM with Hanks salts containing 0.5% FCS) and infected with 100μl of visna virus (strain K184) in maintenance medium (30 TCID50/ ml). Test samples were diluted with maintenance medium in further 96 well microtitre plates over the range 200-0.09 μg/ml by 3-fold dilution steps. 100 μl of the diluted samples was then transferred directly onto virus-infected monolayers (final concentration range therefore 100-0.045 μg/ml) and incubated at 37° C. in a humidified, 5% CO2 incubation until virus-induced CPE was maximal in the untreated virus-infected controls (usually 12-14 days). The plates were fixed with formal saline and stained with crystal violet.
Virus-induced CPE was then scored microscopically and the minimum concentration of sample giving complete protection of the cell monolayers (MIC) determined.

Assay [2] concerns herpes simplex virus 1, strain SC16. Briefly: CPE inhibition test (replicating cells), herpes simplex virus 1 (strain SC16). Particulars: Human alphaherpesvirus 1, SC16, MRC5, SC16 strain in MRC-5 cells; each figure is a single test; read-out: IC50, Herpes Simplex Type 1 virus. The source says:
3. CPE Inhibition Test (Replicating Cells) for Herpes Simplex Virus 1 MRC-5 cells (in Eagles MEM containing 5% newborn calf serum) were infected in suspension with herpes simplex virus 1, strain SC16 (approximately one infectious particle per 10 cells). One hundred microliters of the infected cell suspension (containing approximately 2× 10^4 cells) were dispensed into each well of a 96 well microtitre plate containing an equal volume of the test drug in medium (Eagles MEM containing 5% newborn calf serum) at concentrations ranging from 200 to 0.09 μg/ml (3-fold dilution steps); final concentrations therefore ranged between 100 to 0.045 μg/ml. The plates were then incubated at 37° C. in a humidified atmosphere of 5% CO2 for 3 days when the virus-induced cytopathic effect (CPE) in the control wells reached 100%. The plates were fixed in formal saline and stained with carbol fuchsin. […] Plates of uninfected cells were set up in parallel to determine the minimum concentration of test compound which caused cytotoxicity.

In assay [3] the test system is herpes simplex virus 2 (HSV-2; strain MS). Description: Plaque reduction test, herpes simplex virus 2 (strain MS). Particulars: Human alphaherpesvirus 2, MRC5, MS strain in MRC-5 cells; each figure is a single test; read-out: IC50, Herpes Simplex Type 2 virus. As to the method: Plaque Reduction Test for Heroes Simplex viruses 1 and 2. Cells (vero or MRC-5) were grown to confluence in 24 well multi-dishes (well diameter 1.5 cm). The drained cell monolayers were each infected with approximately 50 infectious particles of herpes simplex virus 1 (HSV-1; strain HFEM) or herpes simplex virus 2 (HSV-2; strain MS) in 100 μof phosphate-bufferedsaline. The virus was adsorbed for 1 hour at room temperature. After adsorption, residual inoculum was removed from each well and replaced with 0.5ml of Eagle's MEM containing 5% newborn calf serum and 0.9% agarose (A37). Once the agarose had set, dilutions of the test compound, which had been prepared in Eagle's MEM (containing 5% newborn calf serum), were added, each well receiving 0.5ml of liquid overlay. The test compound was diluted to give the following series of […] concentrations: 200, 60, 20, 6 . . . 0.06 μg/ml; final concentrations in the assay ranged, therefore, between 100 μg/ml and 0.03 μg/ml. […]
Cultures from 1 and 2 were fixed in formal saline, the agarose overlays were carefully washed off, and then the cell monolayers were stained with carbol fuchsin. […] In addition, the monolayers were examined for evidence of drug-induced cytotoxicity; the minimum concentration at which cytotoxicity occurs was recorded.
For orientation: In a plaque reduction assay, fewer plaques than in the control indicate reduced infectivity or spread.

Values after ≈ are worked out from the molar mass of the structure shown.

In the case of `Nc1nc2c(ncn2OCCCO)c(=O)[nH]1` [Example 1, 9-(3-Hydroxyprop-1-oxy)guanine], the MIC in assay [1] amounted to 3 µg/mL (≈ 13.3 µM). The same measure, in the same setting: as for `Nc1nc2c(ncn2OCC(CO)CO)c(=O)[nH]1` [Example 5, 9-(3-Hydroxy-2-hydroxymethylprop-1-oxy)guanine], the figure is 0.1 µg/mL (≈ 0.392 µM). The same measure, in the same setting: next, `Nc1nc2c(ncn2OCC(O)CO)c(=O)[nH]1` (stereo not shown) [Example 6, 9-(2,3-Dihydroxyprop-1-oxy)guanine]: 10 µg/mL (≈ 41.5 µM); `Nc1nc2c(ncn2OC(CO)CCO)c(=O)[nH]1` (stereo not shown) [Example 8, 9-(1,4-Dihydroxybut-2-oxy)guanine]: 30 µg/mL (≈ 118 µM). In the case of `Nc1nc2c(ncn2OC[C@@H](O)CO)c(=O)[nH]1` [Example 31, (S)-9-(2,3-Dihydroxyprop-1-oxy)guanine], the values for the IC50 in assay [2] and in assay [3] were 0.7 µg/mL (≈ 2.9 µM) and 0.06 µg/mL (≈ 0.249 µM), respectively. The MIC in assay [1] turned out to be 10 µg/mL (≈ 41.5 µM).

In general, IC50 refers to the midpoint of a concentration-inhibition curve.
